Broadly, the Kd is the equilibrium constant for the complex coming apart. Lower therefore signals higher affinity.

Consider one molecule from paper PMC10163259, “KK-LC-1 as a therapeutic target to eliminate ALDH^+ stem cells in triple negative breast cancer” (Nature Communications, 2023).

For this assay, the target named is T1, KK-LC-1 (Homo sapiens, UniProt Q5H943).
T1 construct: gene CT83; purified KK-LC-1 protein, biotinylated, immobilised on Super Streptavidin sensors
T1 sequence (Q5H943 1-113): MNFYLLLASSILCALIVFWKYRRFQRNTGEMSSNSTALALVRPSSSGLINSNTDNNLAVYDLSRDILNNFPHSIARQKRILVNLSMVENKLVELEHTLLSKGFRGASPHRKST
As to the kind of experiment: biolayer interferometry (Octet K2). In kind it is binding. As to conditions: 30 °C; PBS with 0.1% BSA, 0.01% Tween-20, 1% DMSO; biotinylated KK-LC-1 immobilised; from kon/koff. On the technique in general: In BLI a coated tip is dipped into the sample, and binding shifts an interference pattern.

With `Cc1ccc(CNC(=O)c2nnc(CN(C)C3CCc4ccccc43)s2)cc1` (stereo not shown) [Z8, Z839878730], the affinity, expressed as Kd, was 4.3 µM. This lies in the single-digit micromolar range.
